Data taken from patent US11717569B2, “Tolerogenic synthetic nanocarriers” (Selecta Biosciences, Inc., priority 2011, dated 2023).

Legend:
[1] = test system: Treg cells (CD4+CD25highFoxP3+); experiment: Antigen-specific tolerogenic dendritic cells (tDC) activity on Treg cell development; assay type: cell-based, OTII mice; details: FIG. 3; unstimulated 1.3%
Procedure: The assay included the use of OTII mice which have a transgenic T cell receptor specific for an immune-dominant ovalbumin peptide (323-339). In order to create antigen-specific tDCs, CD11c^+ splenocytes were isolated, and the ovalbumin peptide (323-339) added in vitro at 1 μg/ml or no antigen. Soluble or nanocarrier-encapsulated rapamycin was then added to the DCs for 2 hours which were then washed extensively to remove free rapamycin from the culture. Purified responder CD4^+CD25^− cells were isolated from OTII mice and added to tDC at a 10:1 T to DC ratio. The mixture of tDC and OTII T cells were then cultured for 4-5 days, and the frequency of Treg cells (CD4^+CD25highFoxP3^+) were analyzed by flow cytometry as shown in FIG. 1. Regions were selected based on isotype controls.
Free rapamycin or synthetic nanocarriers containing rapamycin were combined with free soluble Ovalbumin (323-339) to evaluate induction of tDC (FIG. 2). […] Briefly, antigen specific tDC were obtained by isolating dendritic cells (CD11c^+ splenocytes) and culturing them in combination with the Ovalbumin (323-339) peptide plus soluble or nanocarrier encapsulated rapamycin (Synthetic Nanocarrier #s 13, 14, 15 and 16) for 2 hours followed by extensive washing. […] The mixture of tDC and OTII T cells were then cultured for 4-5 days, and the frequency of Treg cells (CD4^+CD25highFoxP3^+) were analyzed by flow cytometry.

iNKT cells = experiment: CD69 activation on liver iNKT cells in vivo; details: mice that received aGC
Procedure: Mice were designated to groups that received PBS alone, sol aGC+solRAPA, sol aGC+NP RAPA. Mice were injected at 9 am and at 9.30 AM received BrefeldinA i.v. to prevent release of intracellular cytokines produced. At 1 pm, mice were sacrificed and the liver was perfused with PBS and processed to obtain a single cell suspension enriched for lymphocytes. Cells were stained with cell surface markers for iNKT cells (agc-loaded CD1d tetramers) and T cells receptor (TCRb) and activation marker CD69. Cells were acquired on a FacsCanto flow cytometer and analyzed on by FlowJo.

Structure (SMILES)	induction of FoxP3 expressing cells [1]	iNKT cell activation (cytokine production and up regulation of CD69) (iNKT cells)
CO[C@H]1C[C@@H]2CC[C@@H](C)[C@@](O)(O2)C(=O)C(=O)N2CCCC[C@H]2C(=O)O[C@H]([C@H](C)C[C@@H]2CC[C@@H](O)[C@H](OC)C2)CC(=O)[C@H](C)/C=C(\C)[C@@H](O)[C@@H](OC)C(=O)[C@H](C)C[C@H](C)/C=C/C=C/C=C/1C [free rapamycin, Rapamycin]	2.7%	
CCCCCCCCCCCCCCCCCCCCCCCCCC(=O)N[C@@H](CO[C@H]1O[C@H](CO)[C@H](O)[C@H](O)[C@H]1O)[C@H](O)[C@H](O)CCCCCCCCCCCCCC [aGC, α-Galactosyl Ceramide (KRN7000)]		activated
